Source: patent publication US20190133128A1, “Fungicidal pyridazinones” (FMC Corporation, priority 2017, published 2019)

Columns and labels:
Assay type in all cases: in vivo
[1] = system: Plasmopara viticola; experiment: Test B: preventive spray on grape seedlings, grape downy mildew, disease rating; settings: 250 ppm, 100 = 100% disease control, 0 = no control
From the text: General protocol for preparing test solutions for Tests AG: the test compounds were first dissolved in acetone in an amount equal to 3% of the final volume and then suspended at the desired concentration (in ppm) in acetone and purified water (50/50 mix by volume) containing the surfactant PEG400 (polyhydric alcohol esters). The resulting test suspensions were then used in Tests AG. Compounds were sprayed at a concentration of 250 ppm or other indicated rate to the point of run-off on the test plants. The test solution was sprayed to the point of run-off on grape seedlings. […] A dash (-) indicates no test results.

[2] = system: Botrytis cinerea; experiment: Test C: preventive spray on tomato seedlings, gray mold, visual disease rating; settings: 250 ppm, 100 = 100% disease control, 0 = no control
Procedure, shortened: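 Compounds predissolved in acetone (3% of final volume), then suspended in 50/50 acetone/water with PEG400 surfactant. Sprayed preventively at 250 ppm or other indicated rate to run-off on tomato seedlings before Botrytis challenge; disease rated visually.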

[3] = system: Zymoseptoria tritici; experiment: Test E: preventive spray on wheat seedlings, wheat leaf blotch, visual disease rating; settings: 250 ppm, 100 = 100% disease control, 0 = no control
Procedure, shortened: (§1)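 Preventive foliar spray of wheat seedlings to run-off, at 250 ppm or other indicated rate. Compounds dissolved in acetone (3% of final volume), suspended in 50/50 acetone–water with PEG400 surfactant. Disease rated visually.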

[4] = system: Puccinia recondita f. sp. tritici; experiment: Test F: preventive spray on wheat seedlings, wheat leaf rust, visual disease rating; settings: 250 ppm, 100 = 100% disease control, 0 = no control
Procedure, shortened: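 Compounds were dissolved in acetone/water (50/50) with PEG400 surfactant and sprayed to run-off on wheat seedlings, at 250 ppm unless another rate is indicated. The next day, seedlings were inoculated with a Puccinia recondita f. sp. tritici spore suspension; disease was rated visually.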

[5] = system: Erysiphe graminis f. sp. tritici; experiment: Test G: preventive spray on wheat seedlings, wheat powdery mildew, visual disease rating; settings: 250 ppm, 100 = 100% disease control, 0 = no control
Procedure, shortened: as §1

[6] = system: Phakopsora pachyrhizi; experiment: Test A: preventive spray on soybean seedlings, Asian soybean rust, visual disease rating; settings: 250 ppm, 100 = 100% disease control, 0 = no control
[7] = system: Phytophthora infestans; experiment: whole plant or invertebrate; settings: 250 ppm; tomato seedlings; 100 = 100% disease control, 0 = no control

Structure (SMILES)	Test B disease control rating [1] [%]	Test C disease control rating [2] [%]	Test E disease control rating [3] [%]	Test F disease control rating [4] [%]	Test G disease control rating [5] [%]	Test A disease control rating [6] [%]	Test D disease control rating [7] [%]
CCCC(=O)Oc1cnn(C)c(=O)c1C(=O)Nc1ccc(OC(F)(F)F)cc1 [Compound 87]	100	0	100	100	99	–	–
Cn1ncc(OS(C)(=O)=O)c(C(=O)Nc2ccccc2F)c1=O [Compound 104]	–	0	94	89	65	87	0
Cc1cccc(NC(=O)c2c(OS(C)(=O)=O)cnn(C)c2=O)c1 [Compound 105]	–	0	86	86	0	86	33
Cn1ncc(OS(C)(=O)=O)c(C(=O)Nc2ccc(Oc3ccccc3)cc2)c1=O [Compound 106]	–	0	83	86	81	98	85
COc1cccc(NC(=O)c2c(OS(C)(=O)=O)cnn(C)c2=O)c1 [Compound 108]	–	0	0	68	0	0	0
Cc1ccc(S(=O)(=O)Oc2cnn(C)c(=O)c2C(=O)Nc2ccc(OC(F)(F)F)cc2)cc1 [Compound 112]	–	0	43	95	0	25	46
Cn1ncc(O)c(C(=O)Nc2c(Cl)cc(Cl)cc2Cl)c1=O [Compound 118]	71	0	–	86	97	–	100
Cc1cc(OC(F)(F)F)ccc1NC(=O)c1c(O)cnn(C)c1=O [Compound 124]	99	0	–	99	99	–	99
Cn1ncc(O)c(C(=O)Nc2ccccc2OC(F)(F)F)c1=O [Compound 126]	95	0	82	89	93	–	–
CCCC(=O)Oc1cnn(C)c(=O)c1C(=O)N(C(=O)CCC)c1ccc(OC(F)(F)F)cc1 [Compound 139]	100	0	–	100	100	–	0
Cn1ncc(O)c(C(=O)Nc2ccc(F)cc2C(F)(F)F)c1=O [Compound 145]	100	0	99	99	99	–	–
Cn1ncc(O)c(C(=O)Nc2ccc(OC(F)(F)F)cc2C(F)(F)F)c1=O [Compound 148]	79	0	79	86	98	–	–
Cn1ncc(Cl)c(C(=O)Nc2ccc(Br)cc2)c1=O [Compound 149]	–	0	0	99	0	92	68
